Results as given in patent publication US20220332774A1, “THERAPEUTIC MITOCHONDRIAL PEPTIDES” (priority 2019, published 2022).

Experiments:
[1] = tested on: H4-IIE Cells; assay: Glucose production in cultured H4-IIE cells; assay type: cell-based, rat; settings: glucose concentration in medium relative to untreated cells; 5 μM peptide, 24 h
Description: The effect of the peptides on glucose homeostasis can be assessed using an assay to monitor glucose production by cultured cells such as rat hepatocytes. Peptide arrays were initially prepared as 5 mM stock in DMSO and diluted to 0.5 mM in H2O; peptides were used at a final concentration of 5 μM (0.1% DMSO). Calculations for peptide concentrations based on approximate molecular weight of 2000 Daltons. H4-IIE rat hepatic cell line was purchased from American Type Culture Collection (Manassas, Va.). H4-IIE cells were seeded in standard medium (DMEM/high glucose+10% Fetal Bovine Serum+antibiotics) at 100,000 cells/well on 96-well plates and allowed to adhere overnight at 37° C. in a humidified atmosphere of 5% CO2/95% air. 24 h after seeding, the medium was removed, cells were rinsed with glucose free DMEM, and the medium replaced with Glucose Production Medium (glucose free DMEM+2 mM sodium pyruvate+10 mM sodium lactate+antibiotics). The cultures were placed at 37° C. in a humidified atmosphere of 5% CO2/95% air overnight. The next morning, the medium was removed and fresh Glucose Production Medium containing compounds was added; 5 uM peptide or 0.5-1 nM insulin as a potent inhibitor of glucose production. Cells were incubated for 24 h at 37° C. in a humidified atmosphere of 5% CO2/95% air. Following 24 h incubation, conditioned medium from each well was transferred to a fresh 96-well plate. Glucose concentrations in the medium were determined using a Glucose Assay kit (Abcam; Cambridge, Mass.) according to the manufacturer's instructions; absorbance measured using a Cytation 3 plate reader at 570 nm (BioTek, Winooski, Vt.). Untreated cells were used as reference for maximal glucose production. Absorbance values were expressed as percent control activity relative to untreated treated cells for 5 μM peptide. The relative standard deviation from plate to plate of untreated control was <25%. […] Glucose levels for 0.5-1 nM insulin treatment were <5% of the untreated control value. Data are presented as representative values from 2-3 independent experiments with each data point performed in triplicate in each independent experiment.

[2] = tested on: 3T3-L1 Mouse Adipocytes; assay: Free fatty acid levels in cultured 3T3-L1 mouse adipocytes (isoproterenol stimulated); assay type: cell-based; settings: free fatty acid in medium; 5 μM peptide, 20-22 h pre-incubation then 3 h with 0.1 nM isoproterenol; isoproterenol alone = 100%
Description: The effect of the peptides on fatty acid metabolism can be assessed using an assay to monitor free fatty acid levels produced by cultured cells such as mouse adipocytes. Peptide arrays were initially prepared as 5 mM stock in DMSO and diluted to 0.5 mM in H2O; peptides were used at a final concentration of 5 μM (0.1% DMSO). Calculations for peptide concentrations based on approximate molecular weight of 2000 Daltons. […] Mouse 3T3-L1 cells purchased from ZenBio (Research Triangle Park, NC) were seeded at 3,000 cells per well in 96-well plates in Pre-adipocyte Medium (Zen-Bio) and grown to confluence at 37° C. in a humidified atmosphere of 5% CO2/95% air. Two days after confluence, cells were placed in Adipocyte Differentiation Medium (Zen-Bio) and cultured for three additional days at 37° C. in a humidified atmosphere of 5% CO2/95% air. The culture medium was then replaced with Adipocyte Maintenance Medium (Zen-Bio) and the cells maintained for an additional 9 days at 37° C. in a humidified atmosphere of 5% CO2/95% air with partial medium replacement every other day. Following 12 days of differentiation, medium was replaced Adipocyte Maintenance Medium without insulin and the cultures placed at 37° C. in a humidified atmosphere of 5% CO2/95% air. On day 13 of differentiation, test peptides were added directly to each well (without replacing the medium) at a final concentration of 5 μM in 0.1% DMSO and incubated for 20-22 hours at 37° C. in a humidified atmosphere of 5% CO2/95% air. […] Cells were incubated for 3 hours in Assay Buffer (Zen-Bio) at 37° C. in a humidified atmosphere of 5% CO2/95% air. Following 3 h incubation, conditioned medium from each well was transferred to a fresh 96-well plate. Free fatty acid concentrations in the medium were determined using a Free Fatty Acid Assay kit (Zen-Bio) according to the manufacturer's instructions; absorbance was measured using a Cytation 3 plate reader at 540 nm (BioTek, Winooski, Vt.). Treatment with 0.1 nM isoproterenol alone was used as the free fatty acid level stimulatory control. Absorbance values were expressed as percent control activity relative to 0.1 nM isoproterenol alone treated cells, 100%. The relative standard deviation of the isoproterenol control was <10%. Insulin at 0.25 nM was used as a potent control for decreasing free fatty acid levels. […] Data presented are representative values from 2 independent experiments with each data point performed in triplicate in each independent experiment.

[3] = tested on: C2C12 Cells; assay: Glucose utilization in cultured C2C12 cells (myotubes); assay type: cell-based, mouse; settings: glucose concentration in medium relative to untreated cells; 5 μM peptide, 22 h
Description: The effect of the peptides on glucose homeostasis can be assessed using an assay to monitor glucose utilization by cultured cells such as mouse myotubes. Peptide arrays were initially prepared as 5 mM stock in DMSO and diluted to 0.5 mM in H2O; peptides were used at a final concentration of 5 μM (0.1% DMSO). Calculations for peptide concentrations based on approximate molecular weight of 2000 Daltons. C2C12 mouse muscle cell line was purchased from Millipore Sigma (Saint Louis, Mo.). C2C12 cells were seeded in standard medium (DMEM/low glucose (1 g/L)+10% Fetal Bovine Serum+antibiotics) at 7,500 cells/well on 96-well plates and grown to confluence at 37° C. in a humidified atmosphere of 5% CO2/95% air. Three days after plating the medium was removed and with Differentiation Medium (DMEM/low glucose (1 g/L)+2% Horse Serum+antibiotics) added. The cultures were placed at 37° C. in a humidified atmosphere of 5% CO2/95% air for 5 days with partially replacement of medium daily. After 5 days of differentiation, the medium was removed from myotube cultures and replaced with Assay Medium (DMEM/low glucose (1 g/L)+antibiotics). Culture were placed at 37° C. in a humidified atmosphere of 5% CO2/95% air for 5 h. Following the 5 h incubation the medium was removed and fresh Assay Medium containing compounds was added; 5 μM peptide or 1 mM metformin as a potent stimulator of glucose utilization. Cells were incubated for 22 h at 37° C. in a humidified atmosphere of 5% CO2/95% air. Following 22 h incubation, conditioned medium from each well was transferred to a fresh 96-well plate. Glucose concentrations in the medium were determined using a Glucose Assay kit (Abcam; Cambridge, Mass.) according to the manufacturer's instructions; absorbance measured using a Cytation 3 plate reader at 570 nm (BioTek, Winooski, Vt.). Untreated cells were used as reference for basal glucose utilization. Absorbance values were expressed as percent control activity relative to untreated treated cells for 5 μM peptide. The relative standard deviation from plate to plate of untreated control was <10%. […] Data presented are representative values from 2-3 independent experiments with each data point performed in triplicate in each independent experiment.

Substance	Percent of Control Activity [1] [%]	Percent of Isoproterenol Control Activity [2] [%]	Percent of Control Activity [3] [%]
62 (MLGVVGWCRL) [compound 62]	106	94	91
65 (MLKPETSSDSPSA) [compound 65]	102	99	99
66 (MLLGWRFQLGAWVGGLQ) [compound 66]	101	104	101
67 (MLLMWWVSEPHCVVVNM) [compound 67]	107	116	88
68 (MLLNSHRCSMSKDNHHSP) [compound 68]	105	99	99
69 (MLMVEWWLGWLHM) [compound 69]	111	104	107
70 (MLNWSNNLTNGTSYP) [compound 70]	105	110	118
71 (MLPLHIYHNTMGLTHPPH) [compound 71]	107	89	105
72 (MLQGQAHLSILFSI) [compound 72]	107	96	97
73 (MLRSMLWNLWSKPQFHAHRP) [compound 73]	111	98	111
75 (MLTPGLVNFVPATAVTRLTQVN) [compound 75]	112	79	100
78 (MMAHLGKKPVSGG) [compound 78]	114	96	106
79 (MMCLRFRWCGLWS) [compound 79]	116	90	94
80 (MMDPEHMNSMALKKAWVQMC) [compound 80]	111	87	99
81 (MMFPIRLHNSPIRP) [compound 81]	115	90	118
82 (MMGITMKKIITNAWAVTMTL) [compound 82]	114	98	105

Substance	Percent of Control Activity [1] [%]	Percent of Isoproterenol Control Activity [2] [%]	Percent of Control Activity [3] [%]
83 (MMGMWLVGHYVLSC) [compound 83]	109	102	95
84 (MMKGKMKWKVKNRV) [compound 84]	108	99	95
85 (MMKLRLTPWRLPDPPNHH) [compound 85]	108	81	88
86 (MMLSWDDIIYGG) [compound 86]	108	98	87
87 (MMMFVYSAMKN) [compound 87]	109	101	97
88 (MMMTIECLHSHFPH) [compound 88]	112	95	87
89 (MMNSDSIIPS) [compound 89]	110	111	112
90 (MMSVWKVAVQTFNCYYYVLQALIN) [compound 90]	104	101	97
91 (MMTHPTTPLTINTKPP) [compound 91]	116	93	109
92 (MMTWSPWKPVATKNVEP) [compound 92]	124	99	93
93 (MMWKTIVVFQLQEHQWPQYAKLTP) [compound 93]	120	96	104
95 (MNHIMAKGHDG) [compound 95]	121	111	92
96 (MNHNQYYQSMLIINNHNSYSNKT) [compound 96]	130	100	91
97 (MNNSSSTVQP) [compound 97]	122	105	95
98 (MNPDQPHHLLLSLYTAIFSKPWW) [compound 98]	117	97	91
100 (MPIIRRMSWSP) [compound 100]	123	105	102
